This is an account of results in article PMC7555312, “Functional Characterization of Temporin-SHe, a New Broad-Spectrum Antibacterial and Leishmanicidal Temporin-SH Paralog from the Sahara Frog (Pelophylax saharicus)” (International Journal of Molecular Sciences, 2020).

The subject of data set [1] is S. aureus ST1065. The class given is cell-based, Staphylococcus aureus.
A further data set relates to P. aeruginosa ATCC 27853. It is filed as cell-based, Pseudomonas aeruginosa.
The subject of another data set is A. baumannii ATCC 19606. The class given is cell-based, Acinetobacter baumannii.
A further data set deals with B. megaterium. It is filed as cell-based, Bacillus megaterium.
A further data set relates to S. aureus ATCC 25923. Briefly: Membrane depolarization assay, DiSC3(5). The class given is cell-based, Staphylococcus aureus. Conditions: peptide at 2-fold MIC; 10^7 cfu/mL in PBS, 1 µM DiSC3(5), 37 °C, 20 min recording; representative of three assays. The protocol:
The depolarization of S. aureus ATCC 25923 cytoplasmic membrane induced by temporin-SHe and temporin-SHd was investigated using the membrane potential-sensitive cyanine dye DiSC3(5) (3,3′-dipropylthiadicarbocyanine iodide), as detailed in [29]. An amount of 700 µL of bacteria resuspended in PBS (10^7 cfu/mL) containing 1 μM DiSC3(5) were preincubated in the dark during 10 min at 37 °C, and then 100 µL of 1 mM KCl were added to the mixture. Fluorescence (λex = 622 nm; λem = 670 nm) was recorded during 20 min at 37 °C (Varian Cary Eclipse fluorescence spectrophotometer) after addition of the peptide (200 µL, final concentration: 2-fold above the MIC). Three independent experiments were performed and the results correspond to a representative experiment with negative (PBS) and positive (melittin) controls.

Another data set relates to human THP-1 monocytes. Briefly: Cytotoxicity, MTT assay. Particulars: THP-1, 72 h, 37 °C, calculated mean from dose–response curves. The protocol:
Hemolytic activity of temporin-SHe was determined against human red blood cells (RBCs), as described in [13]. After incubating the peptide (1–200 µM, final concentrations) with RBCs (2 × 10^7 cells) in 100 µL PBS for 1 h at 37 °C, centrifugation was completed (12,000× g, 15 s) and the absorbance of the supernatant was measured at 450 nm. RBCs suspended in PBS or 0.1% (v/v) Triton X-100 yielded an absorbance associated with 0% and 100% hemolysis, respectively. The percentage of hemolysis was calculated as follow: Hemolysis (%) = [A450 (RBCs with peptide)–A450 (RBCs in PBS)]/[A450 (RBCs with Triton X-100)–A450 (RBCs in PBS)]. Cytotoxicity of temporin-SHe was also assessed on human leukemia monocyte cell line THP-1. Briefly, monocytes (6.25 × 10^5 cells/mL) were incubated with different peptide concentrations (3–50 µM, final concentrations) for 72 h at 37 °C, then cell viability was determined by the MTT assay according to a previously described protocol. Results were expressed as the mean of two independent experiments performed in triplicate.

Data set [2] deals with S. aureus ST1065. Nature of the data set: Membrane permeabilization assay (ONPG hydrolysis). Particulars: increasing peptide concentrations, 2.5 mM ONPG in PBS, 37 °C. The class given is cell-based, Staphylococcus aureus. The protocol:
(§1) The ability of temporin-SHe to permeabilize bacterial cytoplasmic membrane was determined using the Gram-negative strain E. coli ML-35p and the Gram-positive strain S. aureus ST1065, as described. Briefly, after incubation of bacteria (37 °C) in 96-well plates with PBS containing 2.5 mM o-nitrophenyl-β-D-galactopyranoside (ONPG) and different concentrations of temporin-SHe, the production of o-nitrophenol (ONP) resulting from hydrolysis of ONPG by intracytoplasmic β-galactosidase was monitored at 405 nm according to the time (Fluostar Galaxy plate reader, BMG Labtech, Champigny-sur-Marne, France). Wells containing bacteria and ONPG, with no peptide, were used as negative control. Two independent experiments were performed in triplicate. Results are from a representative experiment and were expressed as the mean ± S.D.

Another data set concerns E. coli strains. The class given is cell-based, Escherichia coli.
Another data set has as its system E. coli ML-35p. Nature of the data set: Membrane permeabilization assay (ONPG hydrolysis). The class given is cell-based, Escherichia coli. Conditions: increasing peptide concentrations, 2.5 mM ONPG in PBS, 37 °C. As for the experimental part:
as §1

Where no end group is shown, it is not given here.

Description for A. baumannii ATCC 19606: (§2) Antimicrobial activity was assessed with a liquid growth inhibition assay performed according to a previously described protocol [14] using the Clinical and Laboratory Standards Institute (CLSI) guidelines. Briefly, in 96-well microtitration plates, mid-log-phase bacteria diluted to 10^6 CFU/mL in Mueller–Hinton (MH) broth were added to different concentrations of synthetic temporin-SHe (1–200 µM, final concentrations) and incubated at 37 °C for 18–20 h, under shaking (150 rpm). For E. faecalis, L. ivanovii and yeasts/fungi, 10^6 CFU/mL suspensions were prepared in LB broth, brain heart infusion (BHI) medium and Yeast Peptone Dextrose (YPD) medium, respectively, and incubation was performed at 30 °C for yeasts/fungi. […] MIC values represent the average of three independent experiments, each performed in triplicate with negative (no peptide) and positive (formaldehyde 0.7%) controls.
Description for B. megaterium: (§3) Antifungal activity was evaluated against C. albicans (ATCC 90028), C. parapsilosis (ATCC 22019) and S. cerevisiae.
as §2
Description for E. coli strains: as §3, §2
Description for P. aeruginosa ATCC 27853: as §3, §2

Broadly, the MIC is the lowest concentration found to suppress growth. Low values mean a more susceptible organism, high ones a less susceptible organism. Take FLPALAGIAGLLGKIF-NH2 [Temporin-SHe]: the minimal inhibitory concentration (MIC) with S. aureus ST1065 [1] is listed as 3.12 µM; in the data set with P. aeruginosa ATCC 27853, 60 µM; with A. baumannii ATCC 19606, 25 µM; against B. megaterium, 1.56 µM. Besides, the “membrane depolarization (DiSC3(5) fluorescence increase)” value in the data set with S. aureus ATCC 25923 is listed as “instantaneous”. The “LC50 (lethal concentration 50)” value with human THP-1 monocytes was 11.4 µM. Also, the “cytoplasmic membrane permeabilization (ONP production, A405)” value in the data set on S. aureus ST1065 [2] was “time- and concentration-dependent manner”; in the data set with E. coli ML-35p it was “time- and concentration-dependent manner”. This substance returned an MIC range against E. coli strains of 25 to 50 µM.
